How the values were obtained:
Type in all cases: cell-based, human
[1] = system: whole blood of healthy control donors; experiment: Reactive oxygen species (DCF fluorescence, H2O2) in whole blood of healthy controls; conditions: healthy control donors; treated with H2O2; dose-responsive
Method: (§1) Whole blood samples were appropriately diluted in Ca^2+- and Mg^2+-free Dulbecco's phosphate buffered saline (DPBS, Life Technologies) and the concentration of erythrocytes (RBC/ml) was measured on a Cellometer K2 Fluorescent Viability Cell Counter according to the manufacturer's RBC/AOPI protocol (Nexcelom Biosciences).
(§2) Cells were then diluted to 1*10^6 RBC/ml into either prewarmed 37° C. […] 2′-7′-dichlorofluorescin diacetate (DCF, Millipore Sigma), 20 mM in dimethyl sulfoxide (DMSO, Fisher) were added to a working concentration of 100 μM. Cells were incubated with dye for 15 minutes at 37° C., 5% CO2 in a tissue culture incubator, washed once, and resuspended in the 0.9 volumes of the same prewarmed 37° C. buffer with 5 minute spins at 500× g, accel/decal=5 in a swing arm centrifuge (Beckman Coulter). […] Where possible due to solubility constrains, pH-7.4-adjusted stock solutions of amino acids were used. Wells were mixed by pipetting and plates incubated at 37° C., 5% CO2 in a tissue culture incubator for 30 minutes. Optionally, 40 mM H2O2(Millipore Sigma) freshly prepared in the same buffer was added to bring the concentration to 2 mM, wells mixed by pipetting, and plates were incubated an additional 30, 60, 120, or 240 minutes before fluorescence measurement of ROS signal on a Synergy H4 (BioTek) microplate reader with excitation=488 nm and emission=530 nm, and gain either set to autogain, 75, or 100.

[2] = system: sickle cell disease patient blood; experiment: Reactive oxygen species (DCF fluorescence, H2O2) in sickle cell disease patient blood; conditions: treated with H2O2 and untreated in DPBS
Method: as §1, §2

ICAM-1 = ICAM-1 cell integrated intensity in HLMVEC treated with TNFa; conditions: 0.5 ng/mL TNFα; amino acids at 20×; 24 hours; in words
From the text: (§3) A VEC model was employed to assess the ability of amino acids to influence aspects of vascular dysfunction in SCD. TNFa treatment of healthy donor HLMVEC mimics the SCD disease state and induces expression of adhesion markers ICAM-1 and VCAM-1, and secretion of proinflammatory cytokine IL-6. It is established that levels of ICAM-1, VCAM-1, and IL-6 can contribute to SCD pathology and correlate with the incidence and severity of complications in SCD patients. The VEC model sought to test the ability of amino acids to reduce the TNFa-induced disease phenotype by lowering expression of adhesion markers (ICAM-1 and VCAM-1) and inflammatory cytokines (IL-6) while promoting VEC health and viability.
Primary Human Lung Microvascular Endothelial Cells (HLMVEC; Lonza) were seeded at 6,000 cells per well in Endothelial Cell Growth Basal Medium-2 (Lonza) supplemented with Fetal Bovine Serum (FBS; Lonza), human EGF (Lonza), human VEGF (Lonza), R3-Insulin-like Growth Factor-1 (Lonza), ascorbic acid (Lonza), hydrocortisone (Lonza), human FGF-beta (Lonza), and gentamicin/amphotericin-b (Lonza) in a 96-well plate (Thermo Fisher). […]
(§4) Antibody binding was detected by fluorescence microscopy using a high content imager (Molecular Devices). Images were analyzed using MetaXpress 6 software to determine the integrated intensity per cell for each wavelength corresponding to ICAM-1 or VCAM-1.

VCAM-1 = VCAM-1 cell integrated intensity in HLMVEC treated with TNFa; conditions: 0.5 ng/mL TNFα; amino acids at 20×; 24 hours; in words
From the text: as §3
Primary Human Lung Microvascular Endothelial Cells (HLMVEC; Lonza) were seeded at 6,000 cells per well in Endothelial Cell Growth Basal Medium-2 (Lonza) supplemented with Fetal Bovine Serum (FBS; Lonza), human EGF (Lonza), human VEGF (Lonza), R3-Insulin-like Growth Factor-1 (Lonza), ascorbic acid (Lonza), hydrocortisone (Lonza), human FGF-beta (Lonza), and gentamicin/amphotericin-b (Lonza) in a 96-well plate (Thermo Fisher). The cells were incubated for 45 minutes at room temperature, then incubated overnight at 37° C./5% CO2.
Following overnight incubation, cell were washed once with 150 μL of Dulbecco's phosphate buffered saline (DPBS; Gibco), and then treated with Endothelial Basal Medium MCB-131 (amino acid, glucose, sodium pyruvate, and phenol red free; US Biologicals) containing a defined custom amino acid concentration based on physiological concentrations in blood of patients with SCD (thus recapitulating observed metabolic imbalances such as the depletion of certain essential amino acids including arginine and aspartate and enrichment of certain non-essential amino acids including glutamate and asparagine), dialyzed FBS (Hyclone), human EGF (Lonza), human VEGF (Lonza), R3-Insulin-like Growth Factor-1 (Lonza), ascorbic acid (Lonza), hydrocortisone (Lonza), human FGF-beta (Lonza), and gentamicin/amphotericin-b (Lonza), glucose, 10 mM HEPES, sodium pyruvate, and sodium bicarbonate supplemented with one of the following: • a. PBS (vehicle control), • b. 0.5 ng/mL Tumor Necrosis Factor alpha (TNFα) and PBS, or; • c. 0.5 ng/mL TNFα and amino acid treatments at 20× mean physiological concentrations in plasma based on values published in the Human Metabolome Database (HMDB) in PBS.
After 24 hours of treatment, cells were washed once with 150 μL of DPBS (Gibco), then fixed with 4% paraformaldehyde. […]
as §4

CC(=O)N[C@@H](CS)C(=O)O [N-Acetyl Cysteine, N-acetylcysteine]
ROS measured in whole blood [1]: reduced ROS | ROS measured in whole blood [2]: reduced ROS | TNF-α induced ICAM-1 expression levels in HLMVEC (ICAM-1): reduced levels of ICAM-1 expression to a lesser extent | VCAM-1 expression in HLMVEC (VCAM-1): greatly reduced

Source: patent US11058654B2, “Compositions and methods for the treatment of hemoglobinopathies and thalassemias” (AXCELLA HEALTH INC., priority 2018, dated 2021)
